One experiment deals with T66I/S153Y mutations. The experiment can be described thus: Antiviral assay with recombinant virus generated from site-directed mutant virus. It is filed as cell-based, HIV. The method, then: (§1) The integrase encoding sequence was amplified from either wildtype HIV-1 (IIIB) or NL4.3 virus, or HXB2D site-directed mutant viruses containing mutations in integrase (such as T66I, S153Y, M154I, or combinations thereof) (Hazuda et al., Science 2000, 287, 646-650), or patient samples. Starting from RNA, extracted from virus supernatant or plasma using the QIAamp® viral RNA extraction kit (Qiagen), cDNA was synthesized by reverse transcription (Expand TM reverse transcriptase, 30 min at 42°C) with the primer 3'EGINT10 (SEQ ID NO 11), followed by a nested PCR. The outer PCR was performed with the primers 5'EGINT1 (SEQ ID NO 1) and 3'EGINT10 (SEQ ID NO 11) (ΔR-IN-vif construct) or 5'EGINT3 (SEQ ID NO 4) and 3'EGINT10 (SEQ ID NO 11) (ΔIN construct) (Expand™ High Fidelity PCR system), and 5 µl of the outer product was used for an inner PCR with primers 5'EGINT2 (SEQ ID NO 3) and 3'EGINT11 (SEQ ID NO 12) (ΔR-IN-vif construct) or 5'EGINT4 (SEQ ID NO 5) and 3'EGINT6 (SEQ ID NO 7) (ΔIN construct). In a second protocol the outer primers were identical as described above, the inner primers are 5'EGINT5 (SEQ ID NO 6) and 3'EGINT6 (SEQ ID NO 7). The amplicons can be used for genotyping and phenotyping. Cycling conditions for both PCRs are denaturation for 3 min at 95°C, followed by 30 cycles of 1 min 90°C, 30 sec 55°C, and 2 min 72°C. A final extension was performed at 72°C for 10 min. For recombination, PCR products are purified using the QiaQuick® 96 PCR BioRobot kit (Qiagen), according to the manufacturer's protocol. If the protocol starts from DNA containing the HIV material such as proviral DNA, the reverse transcriptase step is not needed. The nested approach is also not needed when starting from proviral DNA. The obtained amplicons were sequenced using the primers: In_seq1F (SEQ ID NO 17), In_seq2F (SEQ ID NO 18), In_seq3F (SEQ ID NO 19), IN_seq1R (SEQ ID NO 20), IN_seq2R (SEQ ID NO 21), and IN_seq3R (SEQ ID NO 22).
(§2) Recombinant virus was produced by co-transfection by electroporation of the SmaI-linearized IN-deletion construct and the integrase amplicon into MT4 cells or MT4 cells equipped with an LTR driven reporter gene construct. Production of recombinant virus was evaluated by scoring the cytopathogenic effect (CPE) that is induced by HIV-infection of MT4 cells or by the LTR-driven reporter signal induced by HIV infection in MT4 reporter cells. Green fluorescent protein was used as the reporter signal. Viruses are harvested and titrated at maximum CPE. For recombination the deletion construct pSV40HXB2D-ΔIN was used. Recombination experiments were performed with amplicon from wildtype HIV IIIB and NL4.3, and patient sample 146514 generated by both primer sets. For each recombination 2 µg amplicon was co-transfected with 10 µg SmaI-digested pSV40HXB2D-ΔIN by electroporation into MT4-LTR-EGFP cells. Virus stocks were titrated and tested in an antiviral experiment on a reference panel including nucleoside reverse transcriptase inhibitors (NRTI), non- nucleoside reverse transcriptase inhibitors (NNRTI), protein inhibitor (PR), entry and integrase (IN) inhibitors (Table 2). Recombination was checked by nucleic acid sequence analysis using protocols known to the person skilled in the art. Sequencing primers which can be used are In_seq1F (SEQ ID NO 17), In_seq2F (SEQ ID NO 18), In_seq3F (SEQ ID NO 19), IN_seq1R (SEQ ID NO 20), IN_seq2R (SEQ ID NO 21), and IN_seq3R (SEQ ID NO 22).

Another experiment has as its system T66I mutation. Described as above. It counts as cell-based, HIV. The protocol:
as §1, §2

The next experiment relates to S153Y. The description is as above. It counts as cell-based, HIV. The method, then: as §1, §2
In the next experiment the test system is M154I mutation. The experiment is described as above. It is filed as cell-based, HIV. The method, then:
as §1, §2

In the next experiment the test system is T661/M154I mutations. The description is as above. It counts as cell-based, HIV. The protocol:
as §1, §2

The next experiment has as its system NL 4-3. The experiment in a line: microbe, parasite or virus in culture. It counts as cell-based, HIV-1. The following applies: for fold change: fold change in EC50. The protocol: as §1
(§3) A ΔR-IN-vif or ΔIN deletion construct was generated by site-directed mutagenesis on the template pSV40HXB2D with the primers MUT-IN1 (SEQ ID NO 13) and MUT-IN2 (ΔR-IN-vif construct) (SEQ ID NO 14) or MUT-IN3 (SEQ ID NO 15) and MUT-IN4 (SEQ ID NO 16) (ΔIN construct) (protocol Site-directed mutagenesis kit, Stratagene). After DpnI digestion for removal of the methylated template DNA, the construct was digested with SmaI and ligated to circulize the plasmid. The plasmid was transformed into competent cells such as Top10 cells, and colonies were screened for the presence of the deletion construct. The IN-deletion construct was checked by sequence analysis with primers 5'EGINT1 (SEQ ID NO 1) or […] and 3'EGINT10 (SEQ ID NO 11) or 3'EGINT11 (SEQ ID NO 12). For use in recombination experiments, large-scale plasmid DNA preparations were linearized by SmaI digestion and recombined with PCR amplified integrase genes from wild type, mutant, or patient viruses. The plasmid containing the integrase deletion (ΔIN) has been deposited pSV40HXB2D-ΔIN. The sequence of said plasmid is 14377 nucleotides long. The ΔR-IN-vif deletion construct is 13975 nucleotides long. The pSV40HXB2D-ΔIN was deposited at the Belgian Coordinated Collections of Micro-Organisms located at the Universiteit Gent - Laboratorium voor Moleculaire Biologie on August 5, 2002 and the accession number is LMBP 4574.
(§4) Recombinant virus was produced by co-transfection by electroporation of the SmaI-linearized IN-deletion construct and the integrase amplicon into MT4 cells or MT4 cells equipped with an LTR driven reporter gene construct. Production of recombinant virus was evaluated by scoring the cytopathogenic effect (CPE) that is induced by HIV-infection of MT4 cells or by the LTR-driven reporter signal induced by HIV infection in MT4 reporter cells.

The next experiment concerns WT III B. The experiment can be described thus: microbe, parasite or virus in culture. It is filed as cell-based, HIV-1. The following applies: for fold change: fold change in EC50. The method, then: as §1, §3, §4
The mark [1] stands for this setting: Human immunodeficiency virus 1, AVE 1, NL 4-3, primer set 3.
[2] abbreviates: Human immunodeficiency virus 1, NL43, AVE 4, NL4-3, primer set 4.
[3] abbreviates: Human immunodeficiency virus 1, AVE 3, WT III B, primer set 3.
The mark [4] stands for this setting: Human immunodeficiency virus 1, AVE 5, WT III B, primer set 4.

The structures appear in SMILES notation.

What is called EC50 is the midpoint of the concentration-response curve.

With `CC(C)Oc1ccc(Cc2ccccc2)cc1C(=O)CC(=O)C(=O)O` [Compound 4, 2-(1-methylethyloxy)-α,γ dioxo-5-(phenylmethyl)-benzenebutanoic acid], the “fold increase in EC50” value in the experiment on T66I/S153Y mutations is given as 10 fold; with T66I mutation, 2 fold; in the experiment on S153Y, 5 fold; in the experiment on M154I mutation, 3 fold; with T661/M154I mutations, 10 fold. The fold change with NL 4-3 (AVE 1, NL 4-3, primer set 3) is recorded as 0,6; in the experiment on NL 4-3 (AVE 4, NL4-3, primer set 4), 0,9; with WT III B (AVE 3, WT III B, primer set 3), 0,4; with WT III B (AVE 5, WT III B, primer set 4) it was 0,7. The EC50 in the experiment with NL 4-3 (setting [1]) is 172 nM; in the experiment on NL 4-3 (setting [2]) it was 242 nM; in the experiment on WT III B (setting [3]) it was 106 nM; in the experiment with WT III B (setting [4]) it was 186 nM.
For the compound `Cc1ccnc2c1NC(=O)c1cccnc1N2C1CC1` [NVP, Nevirapine], the fold change in the experiment with NL 4-3 (AVE 1, NL 4-3, primer set 3) is 1,1; in the experiment on NL 4-3 (AVE 4, NL4-3, primer set 4), 1,7; in the experiment on WT III B (AVE 3, WT III B, primer set 3), 0,8; in the experiment on WT III B (AVE 5, WT III B, primer set 4), 1,6. Further, the EC50 in the experiment on NL 4-3 (setting [1]) came to 97.6 nM; in the experiment on NL 4-3 (setting [2]) it was 151 nM; in the experiment with WT III B (setting [3]), 66.2 nM; with WT III B (setting [4]), 134 nM.
For the compound `CC(C)c1nc(CN(C)C(=O)N[C@H](C(=O)N[C@@H](Cc2ccccc2)C[C@H](O)[C@H](Cc2ccccc2)NC(=O)OCc2cncs2)C(C)C)cs1` [RTV, ritonavir], the fold change is on record as 0,6 in the experiment on NL 4-3 (AVE 1, NL 4-3, primer set 3); 1,2 in the experiment with NL 4-3 (AVE 4, NL4-3, primer set 4); 0,3 with WT III B (AVE 3, WT III B, primer set 3); 1,0 in the experiment on WT III B (AVE 5, WT III B, primer set 4). Moreover, the EC50 worked out at 87.1 nM with NL 4-3 (setting [1]), 172 nM with NL 4-3 (setting [2]), 44.9 nM in the experiment with WT III B (setting [3]) and 154 nM in the experiment on WT III B (setting [4]).
For the compound `CC(C)(C)NC(=O)[C@@H]1C[C@@H]2CCCC[C@@H]2CN1C[C@@H](O)[C@H](Cc1ccccc1)NC(=O)[C@H](CC(N)=O)NC(=O)c1ccc2ccccc2n1` [SQV, Saquinavir], the fold change was 1,2 with NL 4-3 (AVE 1, NL 4-3, primer set 3); 1,9 in the experiment on NL 4-3 (AVE 4, NL4-3, primer set 4); 0,7 with WT III B (AVE 3, WT III B, primer set 3); 1,8 in the experiment with WT III B (AVE 5, WT III B, primer set 4). Besides, the EC50 turned out to be 23.3 nM with NL 4-3 (setting [1]), 38.5 nM in the experiment on NL 4-3 (setting [2]), 13 nM in the experiment with WT III B (setting [3]) and 35.6 nM with WT III B (setting [4]).

The record behind these values is patent publication EP1285971B1, “Methods for the phenotypic and genotypic assessment of the drug sensitivity of HIV integrase variants” (Tibotec Pharmaceuticals Ltd., priority 2001, dated 2003).
